Format in all cases: in vivo
For one assay, the system named is southern armyworm. Description: Southern armyworm foliar spray test on bean plants. To be noted: Spodoptera eridania, 120 h, read-out: pest mortality SAW. As for the experimental part:
(§1) For mite, aphid, southern armyworm, Mexican bean beetle, and tobacco budworm tests, a solution or suspension was prepared by adding 10 mg of the test compound to a solution of 160 mg of dimethylformamide, 838 mg of acetone, 2 mg of a 3:1 ratio of Triton X-172 : Triton X-152 (respectively, mainly anionic and nonionic low foam emulsifiers which are each anhydrous blends of alkylaryl polyether alcohols with organic sulfonates), and […] of water. The result was a concentration of 100 ppm of the test compound.
(§2) Southern armyworm: Potted bean plants, were placed on a revolving turntable and sprayed with 100 ml of the 100 ppm test compound formulation by use of a DeVilbiss spray gun set at 40 psig air pressure. As an untreated control, 100 ml of a water-acetone-DMF-emulsifier solution, containing no test compound, were also sprayed on plants. A treated control with a commercial technical compound, either cypermethrin or sulprofos, formulated in the same manner, was tested as a standard. When dry, the leaves were placed in plastic cups lined with moistened filter paper. Five randomly selected second instar southern armyworm larvae were introduced into each cup which was closed and held for five days. Larvae which were unable to move the length of the body, even upon stimulation by prodding, were considered dead.

The test system of a further assay is housefly. Description: House fly bait test. The note with it: Musca domestica, read-out: pest mortality HF. The text has this: For housefly tests, the formulation was initially prepared in a similar manner to the above, but in 16.3 g of water with corresponding adjustment of other components, providing a 200 ppm concentration. Final dilution with an equal volume of a 20% by weight aqueous solution of sucrose provided a 100 ppm concentration of the test compound. When necessary, sonication was provided to insure complete dispersion.
House fly: Four to six day old adult house flies were reared according to the specifications of the Chemical Specialties Manufacturing Association (Blue Book, McNair-Dorland Co., N.Y. 1954; pages 243-244, 261) under controlled conditions. The flies were immobilized by anesthetizing with carbon dioxide and twenty five immobilized individuals, males and females, were transferred to a cage consisting of a standard food strainer and a wrapping-paper-covered surface. Ten ml of the 100 ppm test compound formulation were added to a soufflé cup containing an absorbent cotton pad. As an untreated control, 10 ml of a water-acetone-DMF-emulsifier-sucrose solution, containing no test compound, were applied in a similar manner. A treated control with a commercial technical compound, malathion, formulated in the same manner, was tested as a standard. The bait cup was introduced inside the food strainer prior to admitting the anesthetized flies.

In another assay the test system is tobacco budworm. The experiment in a line: Tobacco budworm foliar spray test on cotton plants. The note with it: Heliothis virescens, 120 h, read-out: pest mortality TBW. As for the experimental part:
as §1
Tobacco budworm: Potted cotton plants were placed on a revolving turntable and sprayed with 100 ml of the 100 ppm test compound formulation by use of a DeVilbiss spray gun set at 40 psig air pressure. As an untreated control, 100 ml of a water-acetone-DMF-emulsifier solution, containing no test compound, were also sprayed on plants. A treated control with a commercial technical compound, either cypermethrin or sulprofos, formulated in the same manner, was tested as a standard. When dry, the leaves were placed in plastic dishes containing a piece of filter paper and a moistened dental wick. One randomly selected second instar tobacco budworm larva was then introduced into each cup which was closed and held for five days. Larvae unable to move the length of their body, even upon stimulation by prodding, were considered dead.

In another assay the test system is Mexican bean beetle. The experiment in a line: Mexican bean beetle foliar spray test on bean plants. The note with it: Epilachna varivestis, 120 h, read-out: pest mortality MBB. As for the experimental part: as §1
as §2, with “Mexican bean beetle:” for “Southern armyworm:”, “plants” for “plants,”, “formulation, sufficient to wet the plants to runoff,” for “formulation”, “Mexican bean beetle” for “southern armyworm”

[1] abbreviates: foliar application at 100 ppm, second instar larvae, held five days.
Setting [2] is: bait application at 100 ppm, adult flies, after 24 hours.

Where two headings read alike, the source gives them in different places.

As for `COCC(=O)Nc1c(SC(F)(F)F)c(C#N)nn1-c1c(Cl)cc(C(F)(F)F)cc1Cl` [Compound 1, 1-(2,6-dichloro-4-trifluoromethylphenyl)-3-cyano-4-trifluoromethylsulfenyl-5-(methoxyacetamido)pyrazole], the mortality at 100 ppm in the assay on southern armyworm (foliar), in the assay on housefly (24 h), in the assay with tobacco budworm (foliar) and in the assay on Mexican bean beetle (foliar) was 70 to 100% each time.
As to `COCCOCC(=O)Nc1c(SC(F)(F)F)c(C#N)nn1-c1c(Cl)cc(C(F)(F)F)cc1Cl` [Compound 3], the mortality at 100 ppm in the assay on southern armyworm (setting [1]), in the assay on housefly (setting [2]), in the assay on tobacco budworm (setting [1]) and with Mexican bean beetle (setting [1]) was 70 to 100% throughout.
As to `COCCOCCOCC(=O)Nc1c(SC(F)(F)F)c(C#N)nn1-c1c(Cl)cc(C(F)(F)F)cc1Cl` [Compound 4], the mortality at 100 ppm in the assay on southern armyworm (setting [1]), in the assay with housefly (setting [2]) and with tobacco budworm (setting [1]) was 70 to 100% throughout.
On to `COC(=O)CCC(=O)Nc1c(SC(F)(F)F)c(C#N)nn1-c1c(Cl)cc(C(F)(F)F)cc1Cl` [Compound 5], for which the mortality at 100 ppm with southern armyworm (setting [1]), in the assay with housefly (setting [2]) and with tobacco budworm (setting [1]) was 70 to 100% in each case.
Turning to `CCCCOCC(=O)Nc1c(SC(F)(F)F)c(C#N)nn1-c1c(Cl)cc(C(F)(F)F)cc1Cl` [Compound 6], the mortality at 100 ppm in the assay with southern armyworm (setting [1]), in the assay on housefly (setting [2]) and in the assay on tobacco budworm (setting [1]) was 70 to 100% each time.
Turning to `COCCOCCOCC(=O)Nc1c([S+]([O-])C(F)(F)F)c(C#N)nn1-c1c(Cl)cc(C(F)(F)F)cc1Cl` (stereo not shown) [Compound 10], the mortality at 100 ppm in the assay on southern armyworm (setting [1]) is 70 to 100%.
On to `COCC(=O)Nc1c(SC(F)(Cl)Cl)c(C#N)nn1-c1c(Cl)cc(C(F)(F)F)cc1Cl` [Compound 14], for which the mortality at 100 ppm with southern armyworm (setting [1]), in the assay with housefly (setting [2]) and in the assay on tobacco budworm (setting [1]) was 70 to 100% throughout.
For `CCOCC(=O)Nc1c(SC(F)(Cl)Cl)c(C#N)nn1-c1c(Cl)cc(C(F)(F)F)cc1Cl` [Compound 15], the mortality at 100 ppm in the assay with southern armyworm (setting [1]), with housefly (setting [2]) and in the assay on tobacco budworm (setting [1]) was 70 to 100% in each case.
With `COCCOCC(=O)Nc1c(SC(F)(Cl)Cl)c(C#N)nn1-c1c(Cl)cc(C(F)(F)F)cc1Cl` [Compound 16], the mortality at 100 ppm in the assay with southern armyworm (setting [1]), in the assay on housefly (setting [2]) and with tobacco budworm (setting [1]) was 70 to 100% in each case.
On to `COCC(=O)Nc1c([S+]([O-])C(F)F)c(C#N)nn1-c1c(Cl)cc(C(F)(F)F)cc1Cl` (stereo not shown) [Compound 19], for which the mortality at 100 ppm with southern armyworm (setting [1]) and with housefly (setting [2]) was 70 to 100% in each case.
On to `CC(C)OCC(=O)Nc1c(SC(F)(F)F)c(C#N)nn1-c1c(Cl)cc(C(F)(F)F)cc1Cl` [Compound 20], for which the mortality at 100 ppm in the assay with southern armyworm (setting [1]), in the assay with housefly (setting [2]), in the assay on tobacco budworm (setting [1]) and with Mexican bean beetle (setting [1]) was 70 to 100% in each case.
As for `COC(C)C(=O)Nc1c(SC(F)(F)F)c(C#N)nn1-c1c(Cl)cc(C(F)(F)F)cc1Cl` (stereo not shown) [Compound 21], the mortality at 100 ppm in the assay with southern armyworm (setting [1]), with housefly (setting [2]) and in the assay with tobacco budworm (setting [1]) was 70 to 100% in each case.
Take `COC(C(=O)Nc1c(SC(F)(F)F)c(C#N)nn1-c1c(Cl)cc(C(F)(F)F)cc1Cl)C(C)C` (stereo not shown) [Compound 23]: the mortality at 100 ppm in the assay on southern armyworm (setting [1]) and in the assay with tobacco budworm (setting [1]) was 70 to 100% in each case.
As to `COC(C)C(=O)Nc1c(SC(F)(Cl)Cl)c(C#N)nn1-c1c(Cl)cc(C(F)(F)F)cc1Cl` (stereo not shown) [Compound 26], the mortality at 100 ppm in the assay with southern armyworm (setting [1]), in the assay on housefly (setting [2]) and in the assay on tobacco budworm (setting [1]) was 70 to 100% throughout.
Consider `COC(C(=O)Nc1c(SC(F)(Cl)Cl)c(C#N)nn1-c1c(Cl)cc(C(F)(F)F)cc1Cl)C(C)C` (stereo not shown) [Compound 27], for which the mortality at 100 ppm with southern armyworm (setting [1]) and in the assay on tobacco budworm (setting [1]) was 70 to 100% each time.
As to `COC(C(=O)Nc1c([S+]([O-])C(F)(Cl)Cl)c(C#N)nn1-c1c(Cl)cc(C(F)(F)F)cc1Cl)C(C)C` (stereo not shown) [Compound 29], the mortality at 100 ppm in the assay with southern armyworm (setting [1]) and in the assay with Mexican bean beetle (setting [1]) was 70 to 100% in each case.
With `COC(C)(C)C(=O)Nc1c(SC(F)(F)F)c(C#N)nn1-c1c(Cl)cc(C(F)(F)F)cc1Cl` [Compound 30], the mortality at 100 ppm in the assay on southern armyworm (setting [1]) and in the assay with tobacco budworm (setting [1]) was 70 to 100% throughout.
Consider `COC(C)(C)C(=O)Nc1c(SC(F)(Cl)Cl)c(C#N)nn1-c1c(Cl)cc(C(F)(F)F)cc1Cl` [Compound 31], for which the mortality at 100 ppm with southern armyworm (setting [1]) and in the assay on tobacco budworm (setting [1]) was 70 to 100% in each case.
Regarding `CCCCCCOCC(=O)Nc1c(SC(F)(F)F)c(C#N)nn1-c1c(Cl)cc(C(F)(F)F)cc1Cl` [Compound 33], the mortality at 100 ppm in the assay with tobacco budworm (setting [1]) fell in the range of 70 to 100%.
Consider `CC(C)COCC(=O)Nc1c(SC(F)(F)F)c(C#N)nn1-c1c(Cl)cc(C(F)(F)F)cc1Cl` [Compound 35], for which the mortality at 100 ppm in the assay on southern armyworm (setting [1]), in the assay with housefly (setting [2]) and in the assay with Mexican bean beetle (setting [1]) was 70 to 100% throughout.
As for `CCCCCCCCCCCCOCC(=O)Nc1c(SC(F)(F)F)c(C#N)nn1-c1c(Cl)cc(C(F)(F)F)cc1Cl` [Compound 36], in the assay on housefly (setting [2]), the mortality at 100 ppm is 70 to 100%.
Regarding `CCC(OC)C(=O)Nc1c(SC(F)(Cl)Cl)c(C#N)nn1-c1c(Cl)cc(C(F)(F)F)cc1Cl` (stereo not shown) [Compound 37], the mortality at 100 ppm with southern armyworm (setting [1]), with housefly (setting [2]) and in the assay on tobacco budworm (setting [1]) was 70 to 100% throughout.
For `CCC(OC)C(=O)Nc1c(SC(F)(F)F)c(C#N)nn1-c1c(Cl)cc(C(F)(F)F)cc1Cl` (stereo not shown) [Compound 38], the mortality at 100 ppm with southern armyworm (setting [1]), in the assay on housefly (setting [2]) and in the assay on tobacco budworm (setting [1]) was 70 to 100% in each case.
Regarding `CCOC(CC)C(=O)Nc1c(SC(F)(F)F)c(C#N)nn1-c1c(Cl)cc(C(F)(F)F)cc1Cl` (stereo not shown) [Compound 40], the mortality at 100 ppm in the assay with southern armyworm (setting [1]) and in the assay with housefly (setting [2]) was 70 to 100% throughout.
As for `CCCC(OCC)C(=O)Nc1c(SC(F)(F)F)c(C#N)nn1-c1c(Cl)cc(C(F)(F)F)cc1Cl` (stereo not shown) [Compound 41], the mortality at 100 ppm with southern armyworm (setting [1]) and in the assay on housefly (setting [2]) was 70 to 100% throughout.
For `CC(C)COC(C)C(=O)Nc1c(SC(F)(F)F)c(C#N)nn1-c1c(Cl)cc(C(F)(F)F)cc1Cl` (stereo not shown) [Compound 43], the mortality at 100 ppm with southern armyworm (setting [1]), in the assay on housefly (setting [2]) and with tobacco budworm (setting [1]) was 70 to 100% throughout.
Regarding `CC(C)COC(C)C(=O)Nc1c([S+]([O-])C(F)(F)F)c(C#N)nn1-c1c(Cl)cc(C(F)(F)F)cc1Cl` (stereo not shown) [Compound 44], the mortality at 100 ppm in the assay with southern armyworm (setting [1]), in the assay on housefly (setting [2]) and with Mexican bean beetle (setting [1]) was 70 to 100% throughout.
Take `CCOC(C)C(=O)Nc1c(SC(F)(Cl)Cl)c(C#N)nn1-c1c(Cl)cc(C(F)(F)F)cc1Cl` (stereo not shown) [Compound 45]: the mortality at 100 ppm in the assay on southern armyworm (setting [1]), in the assay with housefly (setting [2]), in the assay with tobacco budworm (setting [1]) and in the assay on Mexican bean beetle (setting [1]) was 70 to 100% each time.
As for `C#CCN(C(=O)COC)c1c(SC(F)(F)F)c(C#N)nn1-c1c(Cl)cc(OC(F)(F)F)cc1Cl` [Compound 48], the mortality at 100 ppm with southern armyworm (setting [1]), in the assay with housefly (setting [2]) and in the assay with tobacco budworm (setting [1]) was 70 to 100% in each case.
For the compound `COCC(=O)Nc1c([N+](=O)[O-])c(Br)nn1-c1c(Cl)cc(C(F)(F)F)cc1Cl` [Compound 49], the mortality at 100 ppm in the assay with southern armyworm (setting [1]) and in the assay on tobacco budworm (setting [1]) was 70 to 100% throughout.

(Values after patent EP0811615A1, “1-Aryl-5-(substituted alkyl (thio) amido) pyrazoles and their use as pesticides” (RHONE-POULENC AGROCHIMIE, priority 1996, dated 1997).)
